Reference: US6617334B2, “Antidepressant azaheterocyclylmethyl derivatives of 7,8-dihydro-1,6,9-trioxa-3-aza-cyclopenta[a]naphthalene” (Wyeth, priority 2001, dated 2003)
Counter-ions that a name gives are not always drawn.

What was measured:
[1] = biological target: T1, serotonin transporter (Rattus norvegicus, UniProt P31652); assay: 3H-paroxetine displacement, affinity for the serotonin transporter; format: binding
T1 construct: displace ^3H-paroxetine from male rat frontal cortical membranes; from tissue; host or cells: male rat frontal cortex membranes

[2] = biological target: T2, human 5-HT1A receptors (Homo sapiens, UniProt P08908); assay: [3H] 8-OHDPAT displacement from the 5-HT1A receptor in transfected CHO cells; format: binding
T2 construct: expressed in transfected cells; host or cells: CHO cells, stably transfected
T2 sequence (P08908 1-422): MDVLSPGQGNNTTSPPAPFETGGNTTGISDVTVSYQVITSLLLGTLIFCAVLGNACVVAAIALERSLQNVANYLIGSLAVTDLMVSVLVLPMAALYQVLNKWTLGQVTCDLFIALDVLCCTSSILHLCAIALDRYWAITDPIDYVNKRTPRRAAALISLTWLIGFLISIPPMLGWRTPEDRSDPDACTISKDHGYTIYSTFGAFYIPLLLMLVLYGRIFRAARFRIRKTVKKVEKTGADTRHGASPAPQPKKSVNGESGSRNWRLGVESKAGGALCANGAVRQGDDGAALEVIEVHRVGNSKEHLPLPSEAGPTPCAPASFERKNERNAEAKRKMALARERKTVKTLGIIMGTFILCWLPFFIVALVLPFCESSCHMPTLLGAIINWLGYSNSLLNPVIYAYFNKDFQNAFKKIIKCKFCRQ
Description: High affinity for the serotonin 5-HT1A receptor was established by testing the claimed compound's ability to displace [^3H] 8-OHDPAT (dipropylaminotetralin) from the 5-HT1A serotonin receptor following a modification of the procedure of Hall et al., J. Neurochem. 44, 1685 (1985) which utilizes CHO cells stably transfected with human 5-HT1A receptors.

[3] = biological target: T3, cloned human 5-HT1A receptors (Homo sapiens, UniProt P08908); assay: 35S-GTPγS binding assay, antagonist activity at 5-HT1A receptors; format: biochemical; details: reversal of the effects of the standard agonist 8-OHDPAT; for IC50: read-out: 5-HT1A Function IC50
T3 construct: expressed in transfected cells
T3 sequence (P08908 1-422): T2 sequence (P08908 1-422)
Description: Antagonist activity at 5-HT1A receptors was established by using a ^35S-GTPγS binding assay similar to that used by Lazareno and Birdsall (Br. J. Pharmacol. 109: 1120, 1993), in which the test compound's ability to affect the binding of ^35S-GTPγS to membranes containing cloned human 5-HT1A receptors was determined. Agonists produce an increase in binding whereas antagonists produce no increase but rather reverse the effects of the standard agonist 8-OHDPAT. The test compound's maximum inhibitory effect is represented as the Imax, while its potency is defined by the IC50.

T1 sequence (P31652 whole entry): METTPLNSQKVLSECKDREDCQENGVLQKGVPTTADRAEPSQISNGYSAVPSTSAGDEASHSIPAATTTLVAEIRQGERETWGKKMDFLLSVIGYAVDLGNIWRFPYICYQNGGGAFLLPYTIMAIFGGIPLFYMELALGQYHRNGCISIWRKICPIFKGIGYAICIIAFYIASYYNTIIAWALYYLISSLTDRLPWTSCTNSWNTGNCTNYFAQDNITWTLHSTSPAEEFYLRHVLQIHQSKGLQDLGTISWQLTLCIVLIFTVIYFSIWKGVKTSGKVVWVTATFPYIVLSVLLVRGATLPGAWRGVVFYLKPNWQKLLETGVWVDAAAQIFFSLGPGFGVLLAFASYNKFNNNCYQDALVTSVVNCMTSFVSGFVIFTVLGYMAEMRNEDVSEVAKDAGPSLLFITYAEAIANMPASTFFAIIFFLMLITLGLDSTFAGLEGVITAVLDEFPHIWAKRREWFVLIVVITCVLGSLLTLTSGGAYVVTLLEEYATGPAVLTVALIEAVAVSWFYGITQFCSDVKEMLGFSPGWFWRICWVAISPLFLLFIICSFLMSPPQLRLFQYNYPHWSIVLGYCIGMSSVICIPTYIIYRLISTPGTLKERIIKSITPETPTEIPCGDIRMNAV

| SMILES | melting point [°C] | Ki [1] [nM] | Ki [2] [nM] | 5-HT1A Function Imax (maximum inhibitory effect) [3] | IC50 [3] [nM] |
| --- | --- | --- | --- | --- | --- |
| Cc1nc2ccc3c(c2o1)OC(CN1CC=C(c2c[nH]c4c(F)cccc24)CC1)CO3 (stereo not shown) | 208 to 210 |  |  |  |  |
| Cc1nc2ccc3c(c2o1)OC(CN1CC=C(c2c[nH]c4cc(F)ccc24)CC1)CO3 (stereo not shown) | 188 to 190 |  |  |  |  |
| Cc1nc2ccc3c(c2o1)OC(CN1CC=C(c2c[nH]c4ccc(C#N)cc24)CC1)CO3 (stereo not shown) (as salt: fumarate) (hydrate or solvate) [Example 4, 3-[1-(2-Methyl-7,8-dihydro-1,6,9-trioxa-3-aza-cyclopenta[a]naphthalen-8-ylmethyl)-1,2,3,6-tetrahydro-pyridin-4-yl]-1H-indole-5-carbonitrile] | 119 |  |  |  |  |
| C1=C(c2c[nH]c3ccccc23)CCN(CC2COc3ccc4ncoc4c3O2)C1 (stereo not shown) [Example 1, 8-[4-(1H-Indol-3-yl)-3,6-dihydro-2H-pyridin-1-ylmethyl]-7,8-dihydro-1,6,9-trioxa-3-aza-cyclopenta[a]naphthalene] | 223 to 224 | 4 | 10.3 | 45 | 334 |
| Cc1nc2ccc3c(c2o1)OC(CN1CC=C(c2c[nH]c4ccc(F)cc24)CC1)CO3 (stereo not shown) [Example 2, 8-[4-(5-Fluoro-1H-indol-3-yl)-3,6-dihydro-2H-pyridin-1-ylmethyl]-2-methyl-7,8-dihydro-1,6,9-trioxa-3-aza-cyclopenta[a]naphthalene] | 95 | 2.25 | 5.43 | 100 | 180 |
| Cc1nc2ccc3c(c2o1)OC(CN1CC=C(c2c[nH]c4ccccc24)CC1)CO3 (stereo not shown) [Example 3, 8-[4-(1H-Indol-3-yl)-3,6-dihydro-2H-pyridin-1-ylmethyl]-2-methyl-7,8-dihydro-1,6,9-trioxa-3-aza-cyclopenta[a]naphthalene] | 196 | 3.83 | 7.56 | 100 | 282 |
| Cc1nc2ccc3c(c2o1)OC(CN1CC=C(c2c[nH]c4ccc(C#N)cc24)CC1)CO3 (stereo not shown) [Example 4, 3-[1-(2-Methyl-7,8-dihydro-1,6,9-trioxa-3-aza-cyclopenta[a]naphthalen-8-ylmethyl)-1,2,3,6-tetrahydro-pyridin-4-yl]-1H-indole-5-carbonitrile] |  | 1.68 | 9.56 | 100 | 115 |
